# Measurements reported in article PMC4577729, “7-(Pyrazol-4-yl)-3H-imidazo[4,5-b]pyridine-based derivatives for kinase inhibition: Co-crystallisation studies with Aurora-A reveal distinct differences in the orientation of the pyrazole N1-substituent” (Bioorganic & Medicinal Chemistry Letters, 2015).
# Tests used:
# Assay in all cases: Kinase selectivity profiling
# Assay type in all cases: biochemical
# NEK2a = NEK2a (Homo sapiens, UniProt P51955); conditions: 1 µM, assay duplicates
# Experimental: (§1) [20] Kinase selectivity profiling for compounds 7a, 7d, 14d and 14g was carried out at the International Centre for Protein Kinase Profiling, Division of Signal Transduction Therapy, University of Dundee.
# (§2) Table S1: Kinase selectivity profiling of compounds 7a and 7d in a 102-kinase panel screened at a concentration of 1 µM.
# (§3) Table S2: Kinase selectivity profiling of compounds 14d and 14g in a 105-kinase panel screened at a concentration of 1 µM.
# SGK1 = SGK1 (Homo sapiens, UniProt O00141); conditions: 1 µM, assay duplicates
# Experimental: as §1, §2, §3
# MAPKAP-K3 = MAPKAP-K3 (Homo sapiens, UniProt Q16644); conditions: 1 µM, assay duplicates
# Experimental: as §1, §2, §3
# RSK1 = RSK1 (Homo sapiens, UniProt Q15418); conditions: 1 µM, assay duplicates
# Experimental: as §1, §2, §3
# MARK2 = MARK2 (Homo sapiens, UniProt Q7KZI7); conditions: 1 µM, assay duplicates
# Experimental: as §1, §2, §3
# SYK = SYK (Homo sapiens, UniProt P43405); conditions: 1 µM, assay duplicates
# Experimental: as §1, §2, §3
# MINK1 = MINK1 (Homo sapiens, UniProt Q8N4C8); conditions: 1 µM, assay duplicates
# Experimental: as §1, §2, §3
# CK1 = CK1 (Homo sapiens, UniProt P48730); conditions: 1 µM, assay duplicates
# Chain of CK1 (P48730 whole entry): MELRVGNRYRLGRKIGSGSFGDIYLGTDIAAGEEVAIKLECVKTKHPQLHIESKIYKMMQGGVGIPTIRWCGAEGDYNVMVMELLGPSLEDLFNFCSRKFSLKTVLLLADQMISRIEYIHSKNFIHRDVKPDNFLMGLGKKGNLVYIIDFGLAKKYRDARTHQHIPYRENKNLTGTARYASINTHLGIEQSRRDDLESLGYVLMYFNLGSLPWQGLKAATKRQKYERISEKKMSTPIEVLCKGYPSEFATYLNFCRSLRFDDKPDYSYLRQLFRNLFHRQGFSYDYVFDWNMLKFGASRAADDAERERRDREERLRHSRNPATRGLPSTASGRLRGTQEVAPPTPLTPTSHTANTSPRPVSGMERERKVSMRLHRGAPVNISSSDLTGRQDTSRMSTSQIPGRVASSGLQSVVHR
# Experimental: as §1, §2, §3
# MST4 = MST4 (Homo sapiens, UniProt Q9P289); conditions: 1 µM, assay duplicates
# Experimental: as §1, §2, §3
# VEG-FR = VEG-FR (Homo sapiens, UniProt P17948); conditions: for VEGFR inhibition: 1 μM; for VEG-FR % activity remaining: 1 µM, assay duplicates
# Chain of VEG-FR (P17948 27-1338): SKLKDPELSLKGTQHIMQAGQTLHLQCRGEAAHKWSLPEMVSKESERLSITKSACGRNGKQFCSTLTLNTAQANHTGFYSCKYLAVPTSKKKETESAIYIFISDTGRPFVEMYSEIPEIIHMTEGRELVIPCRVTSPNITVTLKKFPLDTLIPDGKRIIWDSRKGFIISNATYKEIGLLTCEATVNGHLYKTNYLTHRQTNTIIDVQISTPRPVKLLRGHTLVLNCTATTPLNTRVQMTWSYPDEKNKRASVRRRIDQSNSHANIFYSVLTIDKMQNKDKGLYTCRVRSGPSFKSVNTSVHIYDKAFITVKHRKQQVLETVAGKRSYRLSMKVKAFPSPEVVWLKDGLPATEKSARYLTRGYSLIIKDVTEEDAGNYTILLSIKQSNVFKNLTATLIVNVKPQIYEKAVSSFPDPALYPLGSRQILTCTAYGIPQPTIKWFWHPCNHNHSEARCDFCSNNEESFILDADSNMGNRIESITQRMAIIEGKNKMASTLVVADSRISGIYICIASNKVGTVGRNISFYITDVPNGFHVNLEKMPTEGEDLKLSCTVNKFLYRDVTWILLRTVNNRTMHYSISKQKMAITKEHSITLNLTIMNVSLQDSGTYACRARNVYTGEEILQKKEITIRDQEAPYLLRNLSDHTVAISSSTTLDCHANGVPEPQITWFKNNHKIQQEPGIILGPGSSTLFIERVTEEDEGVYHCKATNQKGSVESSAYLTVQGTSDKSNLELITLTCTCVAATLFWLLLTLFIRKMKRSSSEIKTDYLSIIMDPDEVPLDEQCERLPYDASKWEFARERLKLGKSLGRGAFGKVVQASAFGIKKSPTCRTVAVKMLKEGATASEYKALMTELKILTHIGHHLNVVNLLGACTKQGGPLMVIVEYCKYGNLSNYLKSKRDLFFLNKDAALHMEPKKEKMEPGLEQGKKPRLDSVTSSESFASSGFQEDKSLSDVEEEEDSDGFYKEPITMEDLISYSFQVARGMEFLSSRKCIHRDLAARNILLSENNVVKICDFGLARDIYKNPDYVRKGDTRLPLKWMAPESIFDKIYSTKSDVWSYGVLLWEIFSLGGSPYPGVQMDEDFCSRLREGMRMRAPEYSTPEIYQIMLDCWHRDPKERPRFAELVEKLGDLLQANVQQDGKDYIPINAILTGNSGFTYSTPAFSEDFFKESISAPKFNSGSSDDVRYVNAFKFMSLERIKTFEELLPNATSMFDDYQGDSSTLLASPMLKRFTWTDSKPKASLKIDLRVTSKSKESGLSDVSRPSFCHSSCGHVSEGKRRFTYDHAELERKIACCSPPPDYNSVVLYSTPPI
# Experimental: as §1, §2, §3
# JNK2 = JNK2 (Homo sapiens, UniProt P45984); conditions: 1 µM, assay duplicates
# Experimental: as §1, §2, §3
# PIM1 = PIM1 (Homo sapiens, UniProt P11309); conditions: 1 µM, assay duplicates
# Experimental: as §1, §2, §3
# S6K1 = S6K1 (Homo sapiens, UniProt P23443); conditions: 1 µM, assay duplicates
# Experimental: as §1, §2, §3
# MAPKAP-K2 = MAPKAP-K2 (Homo sapiens, UniProt P49137); conditions: 1 µM, assay duplicates
# Experimental: as §1, §2, §3
# EPH-A4 = EPH-A4 (Homo sapiens, UniProt P54764); conditions: 1 µM, assay duplicates
# Chain of EPH-A4 (P54764 20-986): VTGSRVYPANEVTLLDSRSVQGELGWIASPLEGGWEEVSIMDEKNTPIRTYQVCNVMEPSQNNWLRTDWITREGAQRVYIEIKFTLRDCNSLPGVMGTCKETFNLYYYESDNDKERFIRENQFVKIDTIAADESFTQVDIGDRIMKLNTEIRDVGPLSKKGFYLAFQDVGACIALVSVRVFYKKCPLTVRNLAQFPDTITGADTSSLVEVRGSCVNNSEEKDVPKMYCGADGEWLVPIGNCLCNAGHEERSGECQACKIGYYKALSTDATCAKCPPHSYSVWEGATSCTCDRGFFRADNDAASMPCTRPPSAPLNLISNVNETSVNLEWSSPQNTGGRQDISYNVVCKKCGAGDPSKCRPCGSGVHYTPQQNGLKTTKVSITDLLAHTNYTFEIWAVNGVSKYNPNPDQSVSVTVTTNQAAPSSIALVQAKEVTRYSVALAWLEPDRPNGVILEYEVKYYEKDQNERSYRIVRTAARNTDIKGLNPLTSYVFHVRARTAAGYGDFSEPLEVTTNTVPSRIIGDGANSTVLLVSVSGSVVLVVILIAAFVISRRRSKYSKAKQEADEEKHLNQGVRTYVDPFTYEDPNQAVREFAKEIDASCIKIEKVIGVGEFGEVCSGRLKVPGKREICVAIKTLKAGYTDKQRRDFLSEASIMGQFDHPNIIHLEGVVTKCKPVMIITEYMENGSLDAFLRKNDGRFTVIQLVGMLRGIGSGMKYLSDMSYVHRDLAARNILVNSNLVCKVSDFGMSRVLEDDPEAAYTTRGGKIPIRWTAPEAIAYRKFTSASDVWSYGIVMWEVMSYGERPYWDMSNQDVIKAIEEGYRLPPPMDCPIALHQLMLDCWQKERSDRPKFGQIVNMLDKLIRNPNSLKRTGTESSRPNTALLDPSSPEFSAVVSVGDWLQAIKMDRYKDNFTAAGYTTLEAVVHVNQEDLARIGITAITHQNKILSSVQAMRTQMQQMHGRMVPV
# Experimental: as §1, §2, §3
# ERK1 = ERK1 (Homo sapiens, UniProt P27361); conditions: 1 µM, assay duplicates
# Experimental: as §1, §2, §3
# IRR = IRR (Homo sapiens, UniProt P14616); conditions: 1 µM, assay duplicates
# Experimental: as §1, §2, §3
# Src = Src (Homo sapiens, UniProt P12931); conditions: 1 µM, assay duplicates
# Experimental: as §1, §2, §3
# p38b MAPK = p38b MAPK (Homo sapiens, UniProt Q15759); conditions: 1 µM, assay duplicates
# Experimental: as §1, §2, §3
# TAK1 = TAK1 (Homo sapiens, UniProt O43318); conditions: 1 µM, assay duplicates
# Experimental: as §1, §2, §3
# MNK1 = MNK1 (Homo sapiens, UniProt Q9BUB5); conditions: 1 µM, assay duplicates
# Experimental: as §1, §2, §3
# HIPK3 = HIPK3 (Homo sapiens, UniProt Q9H422); conditions: 1 µM, assay duplicates
# Experimental: as §1, §2, §3
# NEK6 = NEK6 (Homo sapiens, UniProt Q9HC98); conditions: 1 µM, assay duplicates
# Experimental: as §1, §2, §3
# GSK3b = GSK3b (Homo sapiens, UniProt P49841); conditions: for GSK3b % activity remaining: 1 µM, assay duplicates
# Chain of GSK3b (P49841 whole entry): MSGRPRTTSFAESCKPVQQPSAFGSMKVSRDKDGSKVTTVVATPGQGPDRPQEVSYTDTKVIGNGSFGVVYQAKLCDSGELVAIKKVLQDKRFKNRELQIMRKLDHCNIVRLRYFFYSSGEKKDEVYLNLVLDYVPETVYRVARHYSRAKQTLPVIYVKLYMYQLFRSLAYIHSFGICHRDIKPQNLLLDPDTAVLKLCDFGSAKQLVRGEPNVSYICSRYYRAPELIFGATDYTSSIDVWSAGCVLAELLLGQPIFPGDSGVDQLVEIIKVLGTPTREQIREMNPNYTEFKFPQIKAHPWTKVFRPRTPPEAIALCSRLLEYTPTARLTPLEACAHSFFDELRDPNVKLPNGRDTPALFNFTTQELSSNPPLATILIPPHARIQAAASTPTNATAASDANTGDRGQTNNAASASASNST
# Experimental: as §1, §2, §3
# MEKK1 = MEKK1 (Homo sapiens, UniProt Q13233); conditions: 1 µM, assay duplicates
# Experimental: as §1, §2, §3
# Aurora A = target: T1, Aurora A (Homo sapiens, UniProt O14965); conditions: 1 µM, assay duplicates
# T1 sequence (O14965 1-403): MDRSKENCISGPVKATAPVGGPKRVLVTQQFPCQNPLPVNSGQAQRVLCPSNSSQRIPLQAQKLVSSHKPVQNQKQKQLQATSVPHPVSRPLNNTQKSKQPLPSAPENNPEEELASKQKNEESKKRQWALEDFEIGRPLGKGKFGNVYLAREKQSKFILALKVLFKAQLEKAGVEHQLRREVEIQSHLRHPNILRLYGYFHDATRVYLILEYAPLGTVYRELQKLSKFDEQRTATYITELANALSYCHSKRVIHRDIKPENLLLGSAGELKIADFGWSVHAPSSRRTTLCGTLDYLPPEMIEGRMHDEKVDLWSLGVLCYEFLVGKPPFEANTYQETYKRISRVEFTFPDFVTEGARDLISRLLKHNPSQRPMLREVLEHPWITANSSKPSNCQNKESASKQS
# Experimental: as §1, §2, §3
# PAK6 = PAK6 (Homo sapiens, UniProt Q9NQU5); conditions: 1 µM, assay duplicates
# Chain of PAK6 (Q9NQU5 whole entry): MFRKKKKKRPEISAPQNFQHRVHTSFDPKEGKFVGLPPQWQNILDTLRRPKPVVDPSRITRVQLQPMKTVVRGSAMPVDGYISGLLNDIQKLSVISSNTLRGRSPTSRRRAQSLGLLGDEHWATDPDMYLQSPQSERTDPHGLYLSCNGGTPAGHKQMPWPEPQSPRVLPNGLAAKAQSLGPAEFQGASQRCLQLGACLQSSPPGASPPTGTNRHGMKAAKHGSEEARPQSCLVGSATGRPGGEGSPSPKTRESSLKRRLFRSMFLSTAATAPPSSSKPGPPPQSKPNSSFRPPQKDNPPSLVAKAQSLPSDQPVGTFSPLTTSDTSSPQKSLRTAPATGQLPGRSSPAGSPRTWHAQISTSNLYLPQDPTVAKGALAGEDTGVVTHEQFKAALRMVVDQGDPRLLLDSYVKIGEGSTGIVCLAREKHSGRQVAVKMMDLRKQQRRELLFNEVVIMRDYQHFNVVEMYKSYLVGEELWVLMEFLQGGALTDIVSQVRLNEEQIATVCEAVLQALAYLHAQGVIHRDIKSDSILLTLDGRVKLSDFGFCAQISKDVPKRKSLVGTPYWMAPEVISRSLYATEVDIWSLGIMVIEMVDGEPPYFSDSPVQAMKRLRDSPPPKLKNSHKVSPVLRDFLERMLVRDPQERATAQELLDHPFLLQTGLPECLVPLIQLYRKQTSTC
# Experimental: as §1, §2, §3
# PKBa = PKBa (Homo sapiens, UniProt P31749); conditions: 1 µM, assay duplicates
# Experimental: as §1, §2, §3
# IKKe = IKKe (Homo sapiens, UniProt Q14164); conditions: 1 µM, assay duplicates
# Experimental: as §1, §2, §3
# CDK2-Cyclin A = CDK2-Cyclin A (Homo sapiens, UniProt P24941); conditions: 1 µM, assay duplicates
# Experimental: as §1, §2, §3
# CAMKKb = CAMKKb (Homo sapiens, UniProt Q96RR4); conditions: 1 µM, assay duplicates
# Experimental: as §1, §2, §3
# YES1 = YES1 (Homo sapiens, UniProt P07947); conditions: 1 µM, assay duplicates
# Chain of YES1 (P07947 whole entry): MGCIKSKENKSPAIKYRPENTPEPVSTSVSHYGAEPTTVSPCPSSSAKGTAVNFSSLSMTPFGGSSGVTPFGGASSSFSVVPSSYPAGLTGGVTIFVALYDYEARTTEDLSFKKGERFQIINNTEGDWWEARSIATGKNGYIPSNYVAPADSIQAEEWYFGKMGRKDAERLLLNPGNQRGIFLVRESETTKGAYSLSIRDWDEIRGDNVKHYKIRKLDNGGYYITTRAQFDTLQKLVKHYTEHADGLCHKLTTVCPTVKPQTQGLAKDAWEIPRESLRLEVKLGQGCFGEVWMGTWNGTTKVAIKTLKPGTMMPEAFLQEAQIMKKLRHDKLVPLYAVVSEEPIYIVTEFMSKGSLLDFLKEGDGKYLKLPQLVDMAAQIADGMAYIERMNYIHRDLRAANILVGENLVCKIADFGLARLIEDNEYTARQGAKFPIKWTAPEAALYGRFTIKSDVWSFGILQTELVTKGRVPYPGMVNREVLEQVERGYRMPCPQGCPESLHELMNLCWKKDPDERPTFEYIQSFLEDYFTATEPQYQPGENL
# Experimental: as §1, §2, §3
# MELK = MELK (Homo sapiens, UniProt Q14680); conditions: 1 µM, assay duplicates
# Experimental: as §1, §2, §3
# PKCz = PKCz (Homo sapiens, UniProt Q05513); conditions: 1 µM, assay duplicates
# Experimental: as §1, §2, §3
# PKBb = PKBb (Homo sapiens, UniProt P31751); conditions: 1 µM, assay duplicates
# Experimental: as §1, §2, §3
# PLK1 = PLK1 (Homo sapiens, UniProt P53350); conditions: 1 µM, assay duplicates
# Experimental: as §1, §2, §3
# MST2 = MST2 (Homo sapiens, UniProt Q13188); conditions: 1 µM, assay duplicates
# Chain of MST2 (Q13188 whole entry): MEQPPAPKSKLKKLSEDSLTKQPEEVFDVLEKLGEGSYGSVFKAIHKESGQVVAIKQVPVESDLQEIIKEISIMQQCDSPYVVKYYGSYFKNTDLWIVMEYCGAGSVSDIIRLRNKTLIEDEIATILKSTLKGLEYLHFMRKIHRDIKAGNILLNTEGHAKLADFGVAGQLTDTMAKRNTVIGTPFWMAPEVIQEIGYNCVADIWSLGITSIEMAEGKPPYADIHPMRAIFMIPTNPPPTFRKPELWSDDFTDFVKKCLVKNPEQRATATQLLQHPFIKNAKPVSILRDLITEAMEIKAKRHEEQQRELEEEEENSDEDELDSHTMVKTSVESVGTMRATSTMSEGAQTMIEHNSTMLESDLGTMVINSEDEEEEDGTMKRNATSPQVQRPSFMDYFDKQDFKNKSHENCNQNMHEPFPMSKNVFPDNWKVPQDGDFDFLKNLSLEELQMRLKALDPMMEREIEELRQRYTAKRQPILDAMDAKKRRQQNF
# Experimental: as §1, §2, §3
Compound,NEK2a % activity remaining (NEK2a) [%],SGK1 % activity remaining (SGK1) [%],MAPKAP-K3 % activity remaining (MAPKAP-K3) [%],RSK1 % activity remaining (RSK1) [%],MARK2 % activity remaining (MARK2) [%],SYK % activity remaining (SYK) [%],MINK1 % activity remaining (MINK1) [%],CK1 % activity remaining (CK1) [%],MST4 % activity remaining (MST4) [%],VEGFR inhibition (VEG-FR),VEG-FR % activity remaining (VEG-FR) [%],JNK2 % activity remaining (JNK2) [%],PIM1 % activity remaining (PIM1) [%],S6K1 % activity remaining (S6K1) [%],MAPKAP-K2 % activity remaining (MAPKAP-K2) [%],EPH-A4 % activity remaining (EPH-A4) [%],ERK1 % activity remaining (ERK1) [%],IRR % activity remaining (IRR) [%],Src % activity remaining (Src) [%],p38b MAPK % activity remaining (p38b MAPK) [%],other results
Cc1nn(C)cc1-c1nc2c(-c3cnn(Cc4ccccc4)c3)c(Cl)cnc2[nH]1 [Compound 7a],67,56,69,25,31,37,28,63,64,greater than 80%,6,17,71,18,84,54,28,20,9,91,TAK1 % activity remaining (TAK1): 6%; MNK1 % activity remaining (MNK1): 55%; HIPK3 % activity remaining (HIPK3): 9%; NEK6 % activity remaining (NEK6): 64%; GSK3β inhibition (GSK3b; 1 μM): greater than 80%; GSK3b % activity remaining (GSK3b): 2%; MEKK1 % activity remaining (MEKK1): 74%; Aurora A % activity remaining (Aurora A): 1%; PAK6 % activity remaining (PAK6): 42%; PKBa % activity remaining (PKBa): 70%; IKKe % activity remaining (IKKe): 53%; CDK2-Cyclin A % activity remaining (CDK2-Cyclin A): 1%; CAMKKb % activity remaining (CAMKKb): 19%; YES1 % activity remaining (YES1): 12%; MELK % activity remaining (MELK): 19%; PKCz % activity remaining (PKCz): 103%; PKBb % activity remaining (PKBb): 62%; PLK1 % activity remaining (PLK1): 75%; MST2 % activity remaining (MST2): 60%
Cc1cc(Cn2cc(-c3c(Cl)cnc4[nH]c(-c5cn(C)nc5C)nc34)cn2)no1 [Compound 14d],71,65,103,28,28,49,86,78,56,≥ 80%,7,48,96,12,100,51,52,24,8,91,TAK1 % activity remaining (TAK1): 18%; MNK1 % activity remaining (MNK1): 64%; HIPK3 % activity remaining (HIPK3): 49%; NEK6 % activity remaining (NEK6): 116%; GSK3b % activity remaining (GSK3b): 47%; MEKK1 % activity remaining (MEKK1): 66%; Aurora A % activity remaining (Aurora A): 1%; PAK6 % activity remaining (PAK6): 45%; PKBa % activity remaining (PKBa): 99%; IKKe % activity remaining (IKKe): 3%; CDK2-Cyclin A % activity remaining (CDK2-Cyclin A): 1%; CAMKKb % activity remaining (CAMKKb): 42%; YES1 % activity remaining (YES1): 18%; MELK % activity remaining (MELK): 49%; PKCz % activity remaining (PKCz): 96%; PKBb % activity remaining (PKBb): 94%; PLK1 % activity remaining (PLK1): 115%; MST2 % activity remaining (MST2): 80%
